For series [1], the target named is T1, recombinant full length human estrogen receptor alpha (ERα) (Homo sapiens, UniProt P03372). Briefly: [3H]-ketamine displacement assay. In kind it is binding.
Series [2] deals with T1, recombinant full length human estrogen receptor alpha (ERα). Put plainly: [3H]-ketamine saturation radioligand binding assay. Particulars: read-out: KD of [3H]-ketamine binding to ERα (saturation binding); nine concentrations of [3H]-ketamine, 4 nM to 400 nM; non-linear regression.
The conditions of series [3]: brains of female than in male mice; cited from earlier work.
The target of series [4] is T1, recombinant full length human estrogen receptor alpha (ERα). As to conditions: 1 nM [3H]-estradiol; competitor 4 nM - 40 mM.

Data on five compounds can be found in PMC5960634 (Biochemical pharmacology, 2018).

Structures can show the parent of a compound that is named as a salt.

T1 sequence (P03372 whole entry): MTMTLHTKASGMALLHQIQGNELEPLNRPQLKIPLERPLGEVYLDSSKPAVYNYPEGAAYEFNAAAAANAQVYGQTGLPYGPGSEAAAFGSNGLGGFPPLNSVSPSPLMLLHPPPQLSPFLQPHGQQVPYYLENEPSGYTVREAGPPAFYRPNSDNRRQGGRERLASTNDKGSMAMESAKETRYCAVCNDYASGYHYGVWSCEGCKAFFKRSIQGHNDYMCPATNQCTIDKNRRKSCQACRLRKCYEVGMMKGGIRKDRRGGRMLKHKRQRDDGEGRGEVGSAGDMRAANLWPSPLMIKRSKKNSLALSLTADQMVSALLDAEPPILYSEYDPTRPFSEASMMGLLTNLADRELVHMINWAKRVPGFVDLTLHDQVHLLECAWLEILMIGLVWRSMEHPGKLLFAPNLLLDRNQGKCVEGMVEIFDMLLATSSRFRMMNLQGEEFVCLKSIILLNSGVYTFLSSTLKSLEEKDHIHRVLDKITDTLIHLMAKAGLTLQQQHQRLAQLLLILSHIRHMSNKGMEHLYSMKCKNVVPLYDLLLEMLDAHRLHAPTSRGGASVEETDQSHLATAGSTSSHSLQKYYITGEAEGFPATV

In general, IC50 refers to the concentration needed to halve the response being measured. For the compound `N[C@]1(c2ccccc2Cl)CCC[C@H](O)C1=O` [(2S,6S)-HNK], the 50% inhibitory concentration (IC50) in series [1] amounted to 3530 ± 200 nM.

Take `N[C@@]1(c2ccccc2Cl)CCC[C@@H](O)C1=O` [(2R,6R)-HNK]: the concentration for half-maximal inhibition (IC50) in series [1] is 3400 ± 200 nM.

Consider `CNC1(c2ccccc2Cl)CCCCC1=O` (racemic) [[^3H]-ketamine, (±)-Ketamine [N-methyl-^3H] hydrochloride], for which the Kd in series [2] was 344 nM.

As to `N[C@@]1(c2ccccc2Cl)CCC[C@@H](O)C1=O` [(2S,6S;2R,6R)-HNK, (2S,6S;2R,6R)-hydroxynorketamine], in series [3], the “brain concentrations, female versus male mice” value is on record as “three fold higher”. For the compound `CNC1(c2ccccc2Cl)CCCCC1=O` (stereo not drawn) [ketamine, Ketamine hydrochloride], in series [1], the IC50 stood at 2310 ± 100 nM. For the same compound, in series [4], the “displacement of [3H]-estradiol binding to ERα (in words)” value was “failed to displace”.
